This is an account of results in publication PMC4114983, “The “Gate Keeper” Role of Trp222 Determines the Enantiopreference of Diketoreductase toward 2-Chloro-1-Phenylethanone” (PLoS ONE, 2014).

The target in assay [1] is T1, diketoreductase (DKR) (Acinetobacter baylyi, UniProt B1P3E1, W222L).
T1 construct: full-length in pET22b(+), E. coli BL21(DE3); DEAE and Sephadex G-100 purified; homodimer, 283 residues per subunit
The assay is described as follows: NADH oxidation, absorbance. Format: biochemical. The conditions noted are these: 0.15 mM NADH constant, potassium phosphate pH 6.0; average of two measurements. From the text: (§1) NADH oxidation, absorbance on WT-DKR; diketoreductase (DKR)

Assay [2] deals with T2, diketoreductase (DKR) (Acinetobacter baylyi, UniProt B1P3E1, W222Y).
T2 construct: full-length in pET22b(+), E. coli BL21(DE3); DEAE and Sephadex G-100 purified; homodimer, 283 residues per subunit
The assay can be described thus: NADH oxidation, absorbance. The following applies: 0.15 mM NADH constant, potassium phosphate pH 6.0; average of two measurements. Format: biochemical.
Description: as §1

Assay [3] concerns the target T3, diketoreductase (DKR) (Acinetobacter baylyi, UniProt B1P3E1, W222V).
T3 construct: full-length in pET22b(+), E. coli BL21(DE3); DEAE and Sephadex G-100 purified; homodimer, 283 residues per subunit
The assay is described as follows: NADH oxidation, absorbance. The following applies: 0.15 mM NADH constant, potassium phosphate pH 6.0; average of two measurements. Format: biochemical.
Description: as §1

For assay [4], the target named is T4, WT-DKR; diketoreductase (DKR) (Acinetobacter baylyi, UniProt B1P3E1, W222F).
T4 construct: full-length in pET22b(+), E. coli BL21(DE3); DEAE and Sephadex G-100 purified; homodimer, 283 residues per subunit
The assay can be described thus: NADH oxidation, absorbance. Format: biochemical. The following applies: 0.15 mM NADH constant, potassium phosphate pH 6.0; average of two measurements.
Description: as §1

In assay [5] the target is T5, WT-DKR; diketoreductase (DKR) (Acinetobacter baylyi, UniProt B1P3E1, W222M).
T5 construct: full-length in pET22b(+), E. coli BL21(DE3); DEAE and Sephadex G-100 purified; homodimer, 283 residues per subunit
The assay can be described thus: NADH oxidation, absorbance. Format: biochemical. The following applies: 0.15 mM NADH constant, potassium phosphate pH 6.0; average of two measurements.
Description: as §1

The target in assay [6] is T6, WT-DKR; diketoreductase (DKR) (Acinetobacter baylyi, UniProt B1P3E1).
T6 construct: full-length in pET22b(+), E. coli BL21(DE3); DEAE and Sephadex G-100 purified; homodimer, 283 residues per subunit
The assay can be described thus: NADH oxidation, absorbance. Type of assay: biochemical. The following applies: 0.15 mM NADH constant, potassium phosphate pH 6.0; average of two measurements.
Description: as §1
Target sequence in this assay (B1P3E1 entry or part of it): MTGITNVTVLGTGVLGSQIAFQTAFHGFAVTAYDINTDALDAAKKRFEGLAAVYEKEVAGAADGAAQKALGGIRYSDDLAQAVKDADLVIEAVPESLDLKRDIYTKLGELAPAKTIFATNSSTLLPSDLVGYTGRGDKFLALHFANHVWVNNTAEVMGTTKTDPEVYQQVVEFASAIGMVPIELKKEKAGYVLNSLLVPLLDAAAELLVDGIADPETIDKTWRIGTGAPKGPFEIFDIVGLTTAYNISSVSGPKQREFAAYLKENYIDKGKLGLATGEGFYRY

The target in assay [7] is T2, diketoreductase (DKR). The assay can be described thus: intrinsic Trp fluorescence quenching, quadratic fit. Format: binding. From the text: (§2) intrinsic Trp fluorescence quenching, quadratic fit on WT-DKR; diketoreductase (DKR)
Assay [8] deals with T3, diketoreductase (DKR). The assay is described as above. Type of assay: binding.
Description: as §2

Assay [9] has as its target T7, diketoreductase (DKR) (Acinetobacter baylyi, UniProt B1P3E1, W222F).
T7 construct: full-length in pET22b(+), E. coli BL21(DE3); DEAE and Sephadex G-100 purified; homodimer, 283 residues per subunit
The assay is described as above. Type of assay: binding.
Description: as §2

Assay [10] has as its target T8, diketoreductase (DKR) (Acinetobacter baylyi, UniProt B1P3E1, W222M).
T8 construct: full-length in pET22b(+), E. coli BL21(DE3); DEAE and Sephadex G-100 purified; homodimer, 283 residues per subunit
The assay is described as above. Type of assay: binding.
Description: as §2

The target of assay [11] is T6, WT-DKR; diketoreductase (DKR). The description is as above. Type of assay: binding.
Description: as §2
Target sequence in this assay (B1P3E1 entry or part of it W222L): as the sequence (B1P3E1 entry or part of it) above

The target is the same in assay [12]. The description is as above. Type of assay: binding.
Description: as §2
Target sequence in this assay (B1P3E1 entry or part of it): as above
The source holds these as a separate data set.

Structures are written as SMILES. Like-named read-outs stand apart in the source and are kept apart here.

Usually Km stands for the concentration of substrate that gives half-maximal velocity. As usually defined, the Kd is the equilibrium constant for the complex coming apart. Higher therefore signals a looser complex.

T2 sequence (B1P3E1 entry or part of it W222Y): as the sequence (B1P3E1 entry or part of it) above
T3 sequence (B1P3E1 entry or part of it W222V): as the sequence (B1P3E1 entry or part of it) above
T8 sequence (B1P3E1 entry or part of it W222M): as the sequence (B1P3E1 entry or part of it) above
T5 sequence (B1P3E1 entry or part of it W222M): as the sequence (B1P3E1 entry or part of it) above
T7 sequence (B1P3E1 entry or part of it W222F): as the sequence (B1P3E1 entry or part of it) above
T1 sequence (B1P3E1 entry or part of it W222L): as the sequence (B1P3E1 entry or part of it) above
T4 sequence (B1P3E1 entry or part of it W222F): as the sequence (B1P3E1 entry or part of it) above

As for `O=C(CCl)c1ccccc1` [2-chloro-1-phenylethanone], the Km worked out at 3160 µM in assay [1]; 2510 µM in assay [2]; 302 µM in assay [3]; 4180 µM in assay [4]; 2800 µM in assay [5]; 1130 µM in [6]. In addition, the Kd is 455 µM in [7]; 507 µM in [8]; 484 µM in assay [9]; 457 µM in assay [10]; 458 µM in assay [11]; 460 µM in assay [12].
